# Data taken from patent US4725597A, “Bis(piperazinyl or homopiperazinyl)alkanes” (Boehringer Ingelheim Ltd., priority 1984, dated 1988).
# pIC50: −log10 of the molar value. Structures can show the parent of a compound that is named as a salt.
# Key:
# Format in all cases: cell-based
# guinea pig basophils = assay: Inhibition of histamine release from guinea pig basophils, Procedure C; conditions: Cavia porcellus, 1 h, ovalbumin-sensitized, 37° C., 60 minutes, read-out: In Vitro Inhibition of Histamine Release IC50, Procedure C
# Description: C. Procedure for Determining Inhibition of Histamine Release from Guinea Pig Basophils 1. In Vivo Sensitization: Male Hartley guinea pigs (200-300 gms) are immunized on day 0 with two 0.05 ml intradermal injections of 200 μg ovalbumin. Sensitized basophils are available between days 13-25 post-sensitization. This mode of sensitization favors IgE response. 2. Separation of Leukocytes: The method of Lett-Brown et al., Int. Arch. Allergy, Appl. Immun. 64, 241 (1981) is used. Animals are anesthetized with ether and are bled via cardiac puncture with plastic syringes containing sufficient EDTA to provide a final concentration of 10 mM. One part of 3% gelatin in saline at 37° C. is mixed with two parts of blood in a 16×150 mm tube. The cells are allowed to sediment at a 30° angle for 45 minutes in a 37° C. water bath. The leukocyte-rich plasma is collected and centrifuged at 150×g for 30 minutes at room temperature. The pelleted cells are washed in Hepes-buffered saline (HG) containing 4 mM EDTA and resuspended in Hepes-buffered saline containing Mg^++ and Ca^++ (HGCM) at 4-5×10^6 cells/ml. 3. Reaction Mixture: The reaction is carried out in 12×75 mm plastic tubes and a total volume of 1.2 ml which includes 0.5 ml of antigen, 0.2 ml of drug solution at concentrations ranging from 10-1000 μM and 0.5 ml of prewashed cell suspension. The reaction mixture is incubated in a 37° C. shaking water bath for 60 minutes. Upon completion of the reaction, the tubes are centrifuged and the supernatants collected. The protein is removed from the supernatants by precipitation with 0.2 ml of 8% perchloric acid. 4. Histamine Assay: Histamine release is measured by the automated fluorometric method of Siraganian, supra. The concentration which causes a 50 percent inhibition of Histamine release is computed as in Part A.
# [1] = tested on: rat peritoneal mast cells; assay: Inhibition of histamine release from rat peritoneal mast cells, Procedure B; conditions: Mast cell, 1 h, sheep anti-rat IgE or ovalbumin, 37° C., 60 minutes, (d) No response detected at highest dose indicated, read-out: In Vitro Inhibition of Histamine Release IC50, Procedure B
# Description: B. Procedure for Determining Inhibition of Histamine Release from Rat Peritoneal Mast Cells 1. Harvest of Peritoneal Mast Cells: After the rats are sacrificed with ether, 20 ml of Minimum Essential Medium (MEM) containing 20 units/ml heparin is injected into the peritoneum. The abdomen is massaged for one minute and the lavage fluid collected. The peritoneal cells are centrifuged at 1800 rpm for 8 minutes in cold. After two washes with Tris A buffer, the cells are resuspended in Tris ACM buffer at 2-4×10^6 cells/ml. 2. Reaction Mixture: The reaction is carried out in 12×75 mm plastic tubes at a total volume of 1.25 ml. The reaction mixture includes 0.5 ml (10-1000 μg) sheep anti-rat IgE or ovalbumin, 0.2 ml of the test compound in water at concentrations ranging from 10-1000 μM, […] phosphatidylserine solution (20-60 μg to each tube), and 0.5 ml of cell suspension. The reaction mixture is incubated in a 37° C. shaking water bath for 60 minutes. Upon completion of the reaction, the tubes are centrifuged and the supernatants collected. The protein is removed from the supernatants by precipitation with 0.2 ml of 8% perchloric acid. 3. Histamine Assay: Histamine release is measured by the automated fluorometric method of Siraganian, supra. The concentration which causes a 50% inhibition (IC50) of histamine release is computed as in Part A.
# [2] = tested on: human leukocytes (basophils); assay: Inhibition of histamine release from human leukocytes (basophils), Procedure A; conditions: Leukocyte, 1 h, rabbit anti-human IgE, 37° C., 60 minutes, (d) No response detected at highest dose indicated, read-out: In Vitro Inhibition of Histamine Release IC50, Procedure A
# Description: A. Procedure for Determining Inhibition of Histamine Release from Human Leukocytes (Basophils) 1. Separation of Leukocytes: A modification of the method of L. Lichtenstein and A. Osler, J. Exp. Med. 120, 507 (1964) is used. Heparinized human blood (80-100 ml) is mixed with 20 ml of saline (0.2%) containing 0.6 gm of dextrose and 1.2 gm dextran in propylene centrifuge tubes. The mixture is kept at ambient temperature for 60-90 minutes to allow the separation of erythrocytes from the platelet-leukocyte-rich supernate. The supernate is removed and centrifuged for 8 minutes at 110×g in cold. The leukocyte pellet is washed twice with Tris buffer and finally suspended in 150-180 ml Tris-ACM buffer at 1-2×10^6 cells/ml. 2. Reaction Mixture: The reaction is carried out in 12×75 mm plastic tubes at a total volume of […]. The reaction medium includes 0.05 ml rabbit anti-human IgE (the antigen), 0.2 ml of the test compound in water at concentrations ranging from 10-100 μM, and 0.1 ml of the leukocyte suspension. The reaction mixture is incubated in a 37° C. shaking water bath for 60 minutes. Upon completion of the reaction, the tubes are centrifuged and the supernatants collected. The protein is removed from the supernatants by precipitation with 0.2 ml of 8% perchloric acid. 3. Histamine Assay: Histamine release is measured by the automated fluorometric method of W. Siraganian and W. Hook in Chapter 102 of the Manual of Clinical Immunology, 2nd Edition, edited by R. Rose and H. Friedman, published by the American Society for Microbiology, Washington, D.C. 1980. Percent inhibition is calculated as follows: [formula] The concentration which causes a 50 percent inhibition (IC50) of histamine release is interpolated from a plot of percent inhibition versus logarithm of drug concentration.
pIC50 [1],pIC50 [2],Structure (SMILES),pIC50 (guinea pig basophils)
5.70,4.96,"Clc1ccc(CN2CCN(CCCN3CCN(Cc4ccc(Cl)cc4)CC3)CC2)cc1 [Example 1, 1,3-Bis[4-(4-chlorobenzyl)-1-piperazinyl]propane tetrahydrochloride]",4.46
4.10,4.92,"OC(CN1CCN(Cc2ccc(Cl)cc2)CC1)CN1CCN(Cc2ccc(Cl)cc2)CC1 [Example 2, 1,3-Bis[4-(4-chlorobenzyl)-1-piperazinyl]-2-hydroxypropane]",4.64
–,4.62,"Clc1ccc(CN2CCN(CCCCN3CCN(Cc4ccc(Cl)cc4)CC3)CC2)cc1 [Example 3, 1,4-Bis[4-(4-chlorobenzyl)-1-piperazinyl]butane hemihydrate]",–
–,4.28,"c1ccc(CN2CCN(CCCN3CCN(Cc4ccccc4)CC3)CC2)cc1 [Example 4, 1,3-Bis(4-benzyl-1-piperazinyl)propane tetrahydrochloride]",–
–,4.35,"Fc1ccc(CN2CCN(CCCN3CCN(Cc4ccc(F)cc4)CC3)CC2)cc1 [Example 5, 1,3-Bis[4-(4-fluorobenzyl)-1-piperazinyl]propane tetrahydrochloride]",3.12
–,4.92,"O=C(CCN1CCN(Cc2ccc(Cl)cc2)CC1)N1CCN(Cc2ccc(Cl)cc2)CC1 [Example 6, 1,3-Bis[4-(4-chloro-benzyl)-1-piperazinyl]-1-oxo-propane trihydrochloride]",–
–,5.40,"CC(CCN1CCN(Cc2ccc(Cl)cc2)CC1)N1CCN(Cc2ccc(Cl)cc2)CC1 (stereo not shown) [Example 7, 1,3-Bis[4-(4-chlorobenzyl)-1-piperazinyl]-1-methylpropane tetrahydrochloride hemihydrate]",–
< 4.00,< 3.00,"Clc1ccc(C(c2ccccc2)N2CCN(CCCN3CCN(C(c4ccccc4)c4ccc(Cl)cc4)CC3)CC2)cc1 (stereo not shown) [Example 8, 1,3-Bis[4-(4-chlorobenzhydryl)-1-piperazinyl]-propane dihydrochloride dihydrate]",–
–,5.52,"O=C(CN1CCN(CCCN2CCN(Cc3ccc(Cl)cc3)CC2)CC1)c1ccccc1 [Example 10, 1-[4-(4-Chlorobenzyl)-1-piperazinyl]-3-(4-phenacyl-1-piperazinyl)propane tetrahydrochloride monohydrate]",–
–,4.70,"OC(CN1CCN(CCCN2CCN(Cc3ccc(Cl)cc3)CC2)CC1)c1ccccc1 (stereo not shown) [Example 11, 1-[4-(4-Chlorobenzyl)-1-piperazinyl]-3-[4-(2-hydroxy-2-phenylethyl)-1-piperazinyl]propane tetrahydrochloride]",–
–,3.10,"O=C(CN1CCN(CCCN2CCN(CC(=O)c3ccccc3)CC2)CC1)c1ccccc1 [Example 12, 1,3-Bis(4-phenacyl-1-piperazinyl)propane tetrahydrochloride monohydrate]",–
–,~3.00,"OC(CN1CCN(CCCN2CCN(CC(O)c3ccccc3)CC2)CC1)c1ccccc1 (stereo not shown) [Example 13, 1,3-Bis[4-(2-phenyl-2-hydroxyethyl)-1-piperazinyl]propane tetrahydrochloride]",–
–,4.55,"c1ccc(CCN2CCN(CCCN3CCN(CCc4ccccc4)CC3)CC2)cc1 [Example 14, 1,3-Bis(4-phenethyl-1-piperazinyl)propane dihydrochloride dihydrate]",–
5.00,4.77,"O=C(CC(=O)N1CCN(Cc2ccc(Cl)cc2)CC1)N1CCN(Cc2ccc(Cl)cc2)CC1 [Example 15, 1,3-Bis[4-(4-chlorobenzyl)-1-piperazinyl]-1,3-dioxopropane dihydrochloride monohydrate]",4.31
–,4.10,"CC(c1ccccc1)N1CCN(CCCN2CCN(C(C)c3ccccc3)CC2)CC1 (stereo not shown) [Example 17, 1,3-Bis[4-(1-phenylethyl)-1-piperazinyl]-propane tetrahydrochloride]",–
–,5.52,"Clc1ccc(CN2CCN(CCCN3CCN(Cc4ccc(Cl)c(Cl)c4)CC3)CC2)cc1Cl [Example 20, 1,3-Bis[4-(3,4-dichlorobenzyl)-1-piperazinyl]-propane tetrahydrochloride]",–
–,4.85,"Clc1ccccc1CN1CCN(CCCN2CCN(Cc3ccccc3Cl)CC2)CC1 [Example 21, 1,3-Bis[4-(2-chlorobenzyl)-1-piperazinyl]propane tetrahydrochloride]",–
–,4.70,"Cc1ccc(CN2CCN(CCCN3CCN(Cc4ccc(C)cc4)CC3)CC2)cc1 [Example 22, 1,3-Bis[4-(4-methylbenzyl)-1-piperazinyl]-propane tetrahydrochloride]",–
–,4.85,"Clc1cccc(CN2CCN(CCCN3CCN(Cc4cccc(Cl)c4)CC3)CC2)c1 [Example 23, 1,3-Bis[4-(3-chlorobenzyl)-1-piperazinyl]propane dihydrochloride monohydrate]",–
–,5.22,"FC(F)(F)c1cc(CN2CCN(CCCN3CCN(Cc4ccc(Cl)c(C(F)(F)F)c4)CC3)CC2)ccc1Cl [Example 25, 1,3-Bis[4-(4-chloro-3-trifluoromethylbenzyl)-1-piperazinyl]propane tetrahydrochloride]",–
–,< 3.00,"Oc1ccc(CN2CCN(CCCN3CCN(Cc4ccc(O)cc4)CC3)CC2)cc1 [Example 26, 1,3-Bis[4-(4-hydroxybenzyl)-1-piperazinyl]propane]",–
–,5.52,"Brc1ccc(CN2CCN(CCCN3CCN(Cc4ccc(Br)cc4)CC3)CC2)cc1 [Example 27, 1,3-Bis[4-(4-bromobenzyl)-1-piperazinyl]propane tetrahydrochloride]",–
–,5.70,"Clc1ccc(CCCCN2CCN(CCCN3CCN(CCCCc4ccc(Cl)cc4)CC3)CC2)cc1 [Example 29, 1,3-Bis[4-(4-{4-chlorophenyl}butyl)-1-piperazinyl]propane tetrahydrochloride]",–
–,3.00,"CC1C(C)N(Cc2ccc(Cl)cc2)C(C)C(C)N1CCCN1C(C)C(C)N(Cc2ccc(Cl)cc2)C(C)C1C (stereo not shown) [Example 32, 1,3-bis[4-(4-chlorobenzyl)-2,3,5,6-tetramethyl-1-piperazinyl]propane tetrahydrochloride]",–

Structure (SMILES),pIC50 [1],pIC50 [2],pIC50 (guinea pig basophils)
"CC(=O)Oc1ccc(CN2CCN(CCCN3CCN(Cc4ccc(OC(C)=O)cc4)CC3)CC2)cc1 [Example 30, 1,3-Bis[4-(4-acetoxybenzyl)-1-piperazinyl]propane]",–,< 3.00,–
"CCCCOc1ccc(CN2CCN(CCCN3CCN(Cc4ccc(OCCCC)cc4)CC3)CC2)cc1 [Example 31, 1,3-Bis[4-(4-butoxybenzyl)-1-piperazinyl]propane tetrahydrochloride]",–,5.40,–
